Where a name gives a salt, the structure may show the parent alone. Read-outs that look alike come from different tables or passages of the source.
What was measured:
Assay type in all cases: cell-based, human
SMN2 mRNA = test: Splicing RT-qPCR panel, SMN2 canonical junction (CJ) mRNA; conditions: Homo sapiens, read-out: SMN2 CJ (decrease in CJ mRNA levels, IC50)
In short: (§1)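 A673 cells (DMEM, 10% FBS) or K562 cells (IMDM, 10% FBS) treated 24 h at 37 °C with an 11-point 3-fold dilution, top 10 uM, DMSO ≤0.25%. Canonical-junction mRNA quantified in lysates by RT-qPCR, normalised to GAPDH, GUSB or PPIA and to DMSO (2^−ΔΔCt), then converted to % response.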

Target C mRNA = test: Splicing RT-qPCR panel, Target C canonical junction (CJ) mRNA; conditions: read-out: Target C CJ (decrease in CJ mRNA levels, IC50)
In short: as §1

Target C = test: HiBiT protein abundance assay, Target C (K562 HiBiT knock-in); conditions: HiBiT knock-in cells, 24 hours
Procedure: Cells were maintained in IMDM with 10% FBS. Before the assay, cells were diluted with […] growth media (IMDM+1% FBS media) and were seeded in a 384-well plate at a density of 10000 cells/well (for each cell line listed in Table 6). Each compound was prepared as a 10-point 3-old serial dilution in DMSO with the top dose at a final concentration of 10 μM in the well. Unmodified K562 cells were added at the previously specified density with DMSO to serve as an assay baseline and positive control (PC) and DMSO only with the respective modified cell lines was added to the negative control (NC) columns. Final DMSO concentration was kept at or below 0.25%. Treated cell plates were placed in an incubator at 37° C. with 5% CO2 for 24 hours. After 24 hours, 25 μL of Complete HiBit Lytic reagent was added to each well at room temperature (e.g. one plate requiring 10 ml Lytic Buffer, 100 μL LgBiT Protein, 200 μL Lytic Substrate), shaken for 5 minutes at 600 RPM, then left to sit for 10 minutes for signal to stabilize before reading on a Spark Cyto plate reader (Tecan) with a 500 ms measurement time.
To determine compound effects on protein abundance of each target in Table 6, the percent response for each respective cell line was calculated at each compound concentration as follows:
For the normalized response at each concentration, a four-parameter logistical regression was fit to the data and the response was interpolated at the 50% value to determine a concentration for protein abundance at 50% (IC50) the untreated control.

Row | SMILES | IC50 (SMN2 mRNA) [nM] | IC50 (Target C mRNA; Homo sapiens) [nM] | IC50 (Target C) [nM] | IC50 (Target C mRNA) [nM]
1 | CN[C@H]1CN(c2cnc3nc(-c4cc5cn(C)nc5c(C)c4O)ccc3c2)C[C@H]1F [Compound 129, 5-{6-[(3R,4S)-3-fluoro-4-(methylamino)pyrrolidin-1-yl]-1,8-naphthyridin-2-yl}-2,7-dimethylindazol-6-ol] | < 100 | 100 to 1000 | 100 to 1000 | –
2 | Cc1c(O)c(-c2cc(Cl)c3cc(N4C[C@@H](C)N[C@@H](C)C4)cnc3n2)cc2cn(C)nc12 [Compound 149] | < 100 | – | 100 to 1000 | 1000 to 10000
3 | Cc1c(O)c(-c2cc(C3CC3)c3cc(N4CCNCC4)cnc3n2)cc2cn(C)nc12 [Compound 144, 5-(4-cyclopropyl-6-(piperazin-1-yl)-1,8-naphthyridin-2-yl)-2,7-dimethyl-2H-indazol-6-ol bis(2,2,2-trifluoroacetate)] | < 100 | 1000 to 10000 | 1000 to 10000 | –
4 | Cc1cn2nc(-c3cc(Cl)c4cc(N5C[C@@H](C)N[C@@H](C)C5)cnc4n3)cc(C)c2n1 [Compound 335, 4-chloro-2-{2,8-dimethylimidazo[1,2-b]478pyridazine-6-yl}-6-[(3R,5S)-3,5-dimethylpiperazin-1-yl]-1,8-naphthyridine] | < 100 | 1000 to 10000 | 1000 to 10000 | –
5 | CN[C@@H]1CN(c2cnc3nc(-c4cc5cn(C)nc5c(C)c4O)ccc3c2)C[C@H]1F (single isomer, unassigned) [Compound 130] | < 100 | 100 to 1000 | 100 to 1000 | –
6 | CN[C@@H]1CCN(c2cnc3nc(-c4cc5cn(C)nc5c(C)c4O)ccc3c2)C1 [Compound 112] | < 100 | < 100 | 100 to 1000 | –
7 | CCN[C@@H]1CCN(c2cnc3nc(-c4cc5cn(C)nc5c(C)c4O)ccc3c2)C1 [Compound 124] | < 100 | 100 to 1000 | < 100 | –
8 | CN[C@@H]1CCN(c2cnc3nc(-c4cc5cn(C)nc5c(C)c4O)cc(Cl)c3c2)C1 [Compound 286, 5-{4-chloro-6-[(3R)-3-(methylamino)pyrrolidin-1-yl]-1,8-naphthyridin-2-yl}-2,7-dimethylindazol-6-ol hydrochloride] | < 100 | < 100 | < 100 | –
9 | CN[C@@H]1CCN(c2cnc3nc(-c4cc(C)c5nc(C)cn5n4)cc(Cl)c3c2)C1 [Compound 341] | < 100 | 100 to 1000 | < 100 | –
10 | CN[C@H]1CN(c2cnc3nc(-c4cc5cn(C)nc5c(C)c4O)ccc3c2)C[C@H]1C [Compound 125, 2,7-dimethyl-5-{6-[(3R,4R)-3-methyl-4-(methylamino)379pyrrolidine-1-yl]-1,8-naphthyridin-2-yl}indazol-6-ol] | < 100 | 100 to 1000 | 100 to 1000 | –
11 | CN[C@@H]1CN(c2cnc3nc(-c4cc5cn(C)nc5c(C)c4O)ccc3c2)C[C@@H]1C [Compound 128] | < 100 | 100 to 1000 | 100 to 1000 | –
12 | Cc1cn2nc(-c3cc(Cl)c4cc(N5CCC(N(C)C)CC5)cnc4n3)cc(C)c2n1 [Compound 348] | < 100 | 1000 to 10000 | 100 to 1000 | –
13 | CN[C@H]1CCN(c2cnc3nc(-c4cc5cn(C)nc5c(F)c4O)cc(Cl)c3c2)C1 [Compound 272] | < 100 | 100 to 1000 | < 100 | –
14 | CN[C@@H]1CCN(c2cnc3nc(-c4cc(C)c5nc(C)cn5n4)ccc3c2)C1 [Compound 117] | < 100 | 1000 to 10000 | 100 to 1000 | –
15 | CCN[C@H]1CCN(c2cnc3nc(-c4cc5cn(C)nc5c(C)c4O)ccc3c2)C1 [Compound 123] | < 100 | 100 to 1000 | 100 to 1000 | –
16 | Cc1c(O)c(-c2ccc3cc(N4CCC(N(C)C)CC4)cnc3n2)cc2cn(C)nc12 [Compound 138, 5-{6-[4-(dimethylamino)piperidin-1-yl]-1,8-naphthyridin-2-yl}-2,7-dimethylindazol-6-ol] | < 100 | 1000 to 10000 | 1000 to 10000 | –
17 | CCN[C@@H]1CCN(c2cnc3nc(-c4cc5cn(C)nc5cc4O)ccc3c2)C1 [Compound 310, 5-{6-[(3R)-3-(ethylamino)468pyrrolidine-1-yl]-1,8-naphthyridin-2-yl}-2-methylindazol-6-ol hydrochloride] | < 100 | 100 to 1000 | 100 to 1000 | –
18 | Cc1c(O)c(-c2ccc3cc(N4CCNCC4)cnc3n2)cc2cn(C)nc12 [Compound 137, 2,7-dimethyl-5-[6-(piperazin-1-yl)-1,8-naphthyridin-2-yl]indazol-6-ol] | < 100 | 100 to 1000 | 100 to 1000 | –
19 | C[C@@H]1CN(c2cnc3nc(-c4cc5cn(C)nc5c(F)c4O)cc(Cl)c3c2)C[C@H](C)N1 [Compound 279] | < 100 | 1000 to 10000 | 100 to 1000 | –
20 | CN[C@@H]1CCN(c2cnc3nc(-c4cc5cn(C)nc5c(C)c4O)ncc3c2)C1 [Compound 107, 2,7-dimethyl-5-{6-[(3R)-3-(methylamino)pyrrolidin-1-yl]pyrido[2,3-d]pyrimidin-2-yl}indazol-6-ol hydrochloride] | < 100 | 100 to 1000 | < 100 | –
21 | CN[C@H]1CN(c2cnc3nc(-c4cc5cn(C)nc5c(C)c4O)ccc3c2)C[C@@H]1C [Compound 127, 2,7-dimethyl-5-{6-[(3S,4R)-3-methyl-4-(methylamino)384pyrrolidine-1-yl]-1,8-naphthyridin-2-yl}indazol-6-ol] | < 100 | 100 to 1000 | 100 to 1000 | –
22 | CN[C@H]1CCN(c2cnc3nc(-c4cc(C)c5nc(C)cn5n4)ccc3c2)C1 [Compound 116] | < 100 | 100 to 1000 | < 100 | –
23 | CCNC1CCN(c2cnc3nc(-c4cc5cn(C)nc5c(C)c4O)ccc3c2)C1 (stereo not shown) [Compound 122, 5-{6-[3-(ethylamino)pyrrolidin-1-yl]-1,8-naphthyridin-2-yl}-2,7-dimethylindazol-6-ol] | < 100 | 100 to 1000 | < 100 | –
24 | Cc1c(O)c(-c2cc(Cl)c3cc(N(C)[C@@H]4CCNC4)cnc3n2)cc2cn(C)nc12.Cl [Compound 293] | < 100 | 1000 to 10000 | 1000 to 10000 | –
25 | CN[C@H]1CCN(c2cnc3nc(-c4cc5cn(C)nc5c(C)c4O)cc(Cl)c3c2)C1.Cl [Compound 287] | < 100 | 100 to 1000 | 100 to 1000 | –
26 | Cc1cn2nc(-c3ccc4c(Cl)c(N5C[C@H](C)N[C@@H](C)C5)cnc4n3)cc(C)c2n1 [Compound 393, 5-chloro-2-{2,8-dimethylimidazo[1,2-b]pyridazin-6-yl}-6-[(3S,5S)-3,5-dimethylpiperazin-1-yl]-1,8-naphthyridine] | – | 1000 to 10000 | 100 to 1000 | –
27 | Cc1c(O)c(-c2cc(Cl)c3cc(N4CCNC5(CC5)C4)cnc3n2)cc2cn(C)nc12 [Compound 381] | – | 1000 to 10000 | 1000 to 10000 | –
28 | Cc1cn2cc(-c3cc(Cl)c4cc(N5C[C@H](C)N[C@@H](C)C5)cnc4n3)cc(F)c2n1 [Compound 298] | – | 1000 to 10000 | 1000 to 10000 | –
29 | CNC1CCN(c2cnc3nc(-c4cc5cn(C)nc5c(C)c4O)ncc3c2)C1 (stereo not shown) [Compound 104, 2,7-dimethyl-5-{6-[3-(methylamino)pyrrolidin-1-yl]pyrido[2,3-d]pyrimidin-2-yl}indazol-6-ol] | < 100 | – | 100 to 1000 | –
30 | Cc1cn2nc(-c3cc(Cl)c4cc(N5C[C@H](C)N[C@@H](C)C5)cnc4n3)cc(C)c2n1 [Compound 336] | – | 1000 to 10000 | 100 to 1000 | –
